Assay results reported in the supplement of paper PMC10307832.

What was measured:
Assay in all cases: relative viability (nuclei count vs DMSO), 5 days (fraction); higher = more cells survive
Bosutinib + Crizotinib = compound: COc1cc(Nc2c(C#N)cnc3cc(OCCCN4CCN(C)CC4)c(OC)cc23)c(Cl)cc1Cl [Bosutinib] + C[C@@H](Oc1cc(-c2cnn(C3CCNCC3)c2)cnc1N)c1c(Cl)ccc(F)c1Cl [Crizotinib] (partner 1 µM)
How it was run: (§1)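 Relative viability equals treated-well nuclei counts divided by vehicle-well nuclei counts. Counts came from 4× images of lung cancer cell lines grown in 1536-well plates for 5 days after pin-tool dosing on the day after seeding. Dosing used one drug alone or a fixed anchor-drug dose plus five library-drug doses (not always all listed) in √10 steps, and values are medians of duplicate plates.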

Bosutinib + Alpelisib = compound: COc1cc(Nc2c(C#N)cnc3cc(OCCCN4CCN(C)CC4)c(OC)cc23)c(Cl)cc1Cl [Bosutinib] + Cc1nc(NC(=O)N2CCC[C@H]2C(N)=O)sc1-c1ccnc(C(C)(C)C(F)(F)F)c1 [Alpelisib] (partner 2 µM)
How it was run: as §1

Bosutinib + Phenformin = compound: COc1cc(Nc2c(C#N)cnc3cc(OCCCN4CCN(C)CC4)c(OC)cc23)c(Cl)cc1Cl [Bosutinib] + N=C(N)NC(=N)NCCc1ccccc1 [Phenformin] (partner 250 µM)
How it was run: as §1

Bosutinib + Foretinib = compound: COc1cc(Nc2c(C#N)cnc3cc(OCCCN4CCN(C)CC4)c(OC)cc23)c(Cl)cc1Cl [Bosutinib] + COc1cc2c(Oc3ccc(NC(=O)C4(C(=O)Nc5ccc(F)cc5)CC4)cc3F)ccnc2cc1OCCCN1CCOCC1 [Foretinib] (partner 0.25 µM)
How it was run: as §1

Bosutinib + OSI-027 = compound: COc1cc(Nc2c(C#N)cnc3cc(OCCCN4CCN(C)CC4)c(OC)cc23)c(Cl)cc1Cl [Bosutinib] + COc1cccc2cc(-c3nc([C@H]4CC[C@H](C(=O)O)CC4)n4ncnc(N)c34)[nH]c12 [OSI-027] (partner 0.5 µM)
How it was run: as §1

Cell Line | relative viability (Bosutinib + Crizotinib; first compound 0.01 µM) | relative viability (Bosutinib + Crizotinib; first compound 0.03162 µM) | relative viability (Bosutinib + Crizotinib; first compound 0.1 µM) | relative viability (Bosutinib + Crizotinib; first compound 1 µM) | relative viability (Bosutinib + Alpelisib; first compound 0.01 µM) | relative viability (Bosutinib + Alpelisib; first compound 0.03162 µM) | relative viability (Bosutinib + Alpelisib; first compound 0.1 µM) | relative viability (Bosutinib + Alpelisib; first compound 1 µM) | relative viability (Bosutinib + Phenformin; first compound 0.01 µM) | relative viability (Bosutinib + Phenformin; first compound 0.03162 µM) | relative viability (Bosutinib + Phenformin; first compound 0.1 µM) | relative viability (Bosutinib + Phenformin; first compound 1 µM) | relative viability (Bosutinib + Foretinib; first compound 0.01 µM) | relative viability (Bosutinib + Foretinib; first compound 0.03162 µM) | relative viability (Bosutinib + Foretinib; first compound 0.1 µM) | relative viability (Bosutinib + Foretinib; first compound 1 µM) | relative viability (Bosutinib + OSI-027; first compound 0.01 µM) | relative viability (Bosutinib + OSI-027; first compound 0.03162 µM) | relative viability (Bosutinib + OSI-027; first compound 0.1 µM) | relative viability (Bosutinib + OSI-027; first compound 1 µM)
NCI-H23 | 0.636 | 0.464 | 0.512 | 0.458 | 0.674 | 0.666 | 0.519 | 0.546 | 0.807 | 0.77 | 0.831 | 0.751 | 0.939 | 1.03 | 0.979 | 0.723 | 0.583 | 0.605 | 0.601 | 0.533
NCI-H322M | 1.08 | 0.949 | 0.968 | 1 | 0.665 | 0.741 | 0.717 | 0.81 | 0.865 | 0.777 | 0.846 | 0.449 | 1.04 | 0.867 | 0.881 | 0.414 | 0.531 | 0.566 | 0.549 | 0.422
NCI-H358 | 0.516 | 0.512 | 0.505 | 0.647 | 0.862 | 0.817 | 0.771 | 0.585 | 0.387 | 0.309 | 0.32 | 0.357 | 0.896 | 0.705 | 0.648 | 0.494 | 0.786 | 0.742 | 0.787 | 0.545
NCI-H441 | 0.909 | 0.705 | 0.808 | 1.3 | 0.475 | 0.689 | 0.733 | 1.11 | 0.946 | 0.869 | 0.821 | 0.657 | 1.03 | 1.21 | 1.22 | 1.25 | 0.622 | 0.71 | 0.719 | 0.628
NCI-H460 | 0.85 | 0.884 | 0.859 | 0.639 | 0.5 | 0.533 | 0.428 | 0.201 | 0.557 | 0.492 | 0.491 | 0.356 | 1.01 | 1.03 | 1 | 0.855 | 0.803 | 0.631 | 0.7 | 0.603
NCI-H520 | 0.806 | 0.74 | 0.635 | 0.676 | 0.96 | 0.786 | 0.968 | 0.66 | 0.677 | 0.64 | 0.507 | 0.393 | 0.929 | 0.857 | 0.789 | 0.551 | 0.293 | 0.257 | 0.235 | 0.196
NCI-H596 | 0.923 | 0.884 | 0.989 | 0.743 | 0.505 | 0.992 | 0.945 | 0.348 | 0.883 | 0.668 | 0.721 | 0.646 | 0.745 | 0.857 | 0.721 | 0.855 | 0.743 | 0.738 | 0.639 | 0.496
NCI-H647 | 1.03 | 1.23 | 1.07 | 0.687 | 1.34 | 1.33 | 1.03 | 0.543 | 0.606 | 0.494 | 0.436 | 0.348 | 1.28 | 1.17 | 1.31 | 0.778 | 0.661 | 0.741 | 0.724 | 0.496
NCI-H650 | 0.791 | 0.644 | 0.73 | 0.808 | 1.15 | 1.12 | 1.21 | 1.18 | 0.447 | 0.45 | 0.472 | 0.482 | 1.05 | 1 | 1.09 | 1.04 | 0.634 | 0.502 | 0.588 | 0.628
NCI-H661 | – | 1.06 | 0.989 | 0.633 | 0.407 | 0.881 | 0.88 | 0.477 | 0.281 | 0.3 | 0.287 | 0.269 | 1.07 | 0.995 | 0.968 | 0.596 | 0.682 | 0.804 | 0.744 | 0.56
NCI-H727 | 0.725 | 0.885 | 0.701 | 0.378 | 0.59 | 0.549 | 0.537 | 0.449 | 0.695 | 0.371 | 0.42 | 0.407 | 0.91 | 0.859 | 0.639 | 0.568 | 0.605 | 0.817 | 0.564 | 0.529
NCI-H838 | 0.845 | 0.79 | 0.737 | 0.354 | 0.961 | 0.879 | 0.864 | 0.432 | 0.658 | 0.56 | 0.53 | 0.375 | 1.08 | 1.02 | 0.989 | 0.598 | 0.43 | 0.45 | 0.361 | 0.317
NCI-H1355 | 1.07 | 1.04 | 1.12 | 0.905 | 0.871 | 0.816 | 0.893 | 0.72 | 0.517 | 0.474 | 0.448 | 0.362 | 0.956 | 0.973 | 1.01 | 0.917 | 0.412 | 0.466 | 0.465 | 0.381
NCI-H1437 | 0.858 | 0.922 | 0.898 | 0.82 | 0.939 | 0.954 | 1.04 | 0.862 | 0.341 | 0.305 | 0.335 | 0.287 | 1.23 | 1.2 | 1.14 | 1.1 | 0.887 | 0.878 | 0.938 | 0.886
NCI-H1651 | 0.783 | 0.89 | 0.888 | 0.773 | 0.928 | 0.961 | 0.854 | 0.734 | 0.32 | 0.322 | 0.331 | 0.357 | 0.75 | 0.737 | 0.909 | 0.8 | 0.678 | 0.793 | 0.709 | 0.657
